Values quoted from earlier work in patent US7820652B2, “Regimen for the administration of rifamycin-class antibiotics” (ActivBiotics Pharma, LLC, priority 2003, dated 2010).

Legend:
[1] = system: mycobacterium species

SMILES: CO[C@H]1/C=C/O[C@@]2(C)Oc3c(C)c(O)c4c(=O)c(c5oc6cc(N7CCN(CC(C)C)CC7)cc(O)c6nc-5c4c3C2=O)NC(=O)/C(C)=C\C=C\[C@H](C)[C@H](O)[C@@H](C)[C@@H](O)[C@@H](C)[C@H](OC(C)=O)[C@@H]1C [rifalazil]
- activity against mycobacterium species [1]: effective
- efficacy against mycobacterium species ([1]; once or twice-a-week dose regimen, U.S. Pat. No. 6,316,433): efficacious
- number and severity of adverse reactions (clinical trials, twice-a-week dosing regimen): clear dose-related incidence
- blood cell counts and blood hemoglobin (daily administration): changes in blood cell counts
- adverse reactions (daily dose regimen): severe adverse reactions
- incidence of adverse reactions (once- or twice-a-week dosing regimen): reduced, but did not eliminate
